Patent US6462021B1, “Use of low molecular weight thrombin inhibitor” (AstraZeneca AB, priority 2000, dated 2002)

How the values were obtained:
[1] = test system: patients with NVAF; assay: Clinical dose-guiding study: safety and tolerability (discontinuations, bleeding, adverse events)
Procedure: (§1) The tolerability of three different doses of X (20, 40, 60 mg p.o. b.i.d.) was compared with warfarin (aiming for an international normalisation ratio (INR) of 2 to 3) over 3 months' treatment in NVAF patients with moderately to high increased risk for stroke or systemic embolic events.
(§2) This was a multicentre, multinational, randomized, parallel group, dose-guiding study to compare the safety and tolerabilty of X with warfarin in stroke prophylaxis in patients with NVAF.
(§3) Patients were split into four groups: one group receiving 20 mg of X b.i.d, one given 40 (2×20) mg of X b.i.d, and one 60 (3×20) mg of X b.i.d. The fourth group received warfarin (open label, INR aiming for 2.0 to 3.0). All X medication was given double blind (i.e. neither doctor nor patient knew what tablet strength of X was given).
(§4) The duration of treatment was 12 weeks. […] The 40 mg b.i.d. dose was later reduced to 36 mg b.i.d. of X.

[2] = test system: patients with NVAF; assay: Clinical dose-guiding study: stroke/TIA events; format: in vivo, human
Procedure: as §1, §2, §3, §4

[3] = test system: patients with NVAF; assay: Clinical dose-guiding study: warfarin management (INR by visit); format: in vivo, human
[4] = test system: patients with NVAF; assay: Ongoing open label follow-up trials, 1 year on; format: in vivo
Description: The duration of treatment was 12 weeks.

[5] = NVAF patients, 20, 40, 60 mg p.o. b.i.d.
Procedure: as §1, §3

[6] = warfarin group, 40 treatment years
[7] = X Dose 140 mg (so in the source) b.i.d., 12 weeks
[8] = X group, at 60 mg b.i.d., 12 weeks
[9] = X 36 mg b.i.d., 120 treatment years

CC(=O)CC(c1ccccc1)c1c(O)c2ccccc2oc1=O (centres unmarked) [Warfarin, warfarin]
Bleeding Events, category Major ([1]; warfarin group, 12 weeks): 1 | Bleeding Events, category Minor ([1]; warfarin group, 12 weeks): 2 | Bleeding Events, category Multiple Minor ([1]; warfarin group, 12 weeks): 1 | Bleeding Events, category None (patients) ([1]; warfarin group, 12 weeks): 60 | Bleeding Events, category Unspecified ([1]; warfarin group, 12 weeks): 3 | Number of Patients discontinued, reason Adverse Event ([1]; warfarin group, 12 weeks): 4 | Number of Patients discontinued, reason Calc. CrCl < 40 mL/min ([1]; warfarin group, 12 weeks): 5 | Number of Patients discontinued, reason Other ([1]; warfarin group, 12 weeks): 3 | Number of Patients discontinued, reason Withdrawn Consent ([1]; warfarin group, 12 weeks): 1 | Number of Patients, Total Discontinued ([1]; warfarin group, 12 weeks): 13 | Bleeding Events, category Major ([1]; warfarin group, 12 weeks, listed as warfarin): only major bleed (genital tract) and one | Prematurely discont. (percent of patients) ([1]; warfarin, INR aim 2.0-3.0, 12 weeks): (19%) | Prematurely discont. (number of patients) ([1]; warfarin, INR aim 2.0-3.0, 12 weeks, 67 randomised): 13 | TIAs reported ([2]; warfarin group, 12 weeks): two | Stroke/TIA event of individual patient ([2]; warfarin group, 12 weeks, one line per patient (Pat. 120, 153)): TIA | Patients in INR Range 1.0-1.9 (number) ([3]; Visit 1, Week 0, N 62): 34 | Patients in INR Range 1.0-1.9 (percent) ([3]; Visit 1, Week 0, N 62): 55% | Patients in INR Range 2.0-3.0 (number) ([3]; Visit 1, Week 0, N 62): 21 | Patients in INR Range 2.0-3.0 (percent) ([3]; Visit 1, Week 0, N 62): 34% | Patients in INR Range >3.0 (number) ([3]; Visit 1, Week 0, N 62): 7 | Patients in INR Range >3.0 (percent) ([3]; Visit 1, Week 0, N 62): 11% | Patients in INR Range 1.0-1.9 (number) ([3]; Visit 3, Week 1, N 59): 22 | Patients in INR Range 1.0-1.9 (percent) ([3]; Visit 3, Week 1, N 59): 37% | Patients in INR Range 2.0-3.0 (number) ([3]; Visit 3, Week 1, N 59): 25 | Patients in INR Range 2.0-3.0 (percent) ([3]; Visit 3, Week 1, N 59): 42% | Patients in INR Range >3.0 (number) ([3]; Visit 3, Week 1, N 59): 12 | Patients in INR Range >3.0 (percent) ([3]; Visit 3, Week 1, N 59): 20% | Patients in INR Range 1.0-1.9 (number) ([3]; Visit 4, Week 2, N 54): 15 | Patients in INR Range 1.0-1.9 (percent) ([3]; Visit 4, Week 2, N 54): 28% | Patients in INR Range 2.0-3.0 (number) ([3]; Visit 4, Week 2, N 54): 26 | Patients in INR Range 2.0-3.0 (percent) ([3]; Visit 4, Week 2, N 54): 48% | Patients in INR Range >3.0 (number) ([3]; Visit 4, Week 2, N 54): 13 | Patients in INR Range >3.0 (percent) ([3]; Visit 4, Week 2, N 54): 24% | Patients in INR Range 1.0-1.9 (number) ([3]; Visit 5, Week 4, N 51): 17 | Patients in INR Range 1.0-1.9 (percent) ([3]; Visit 5, Week 4, N 51): 33% | Patients in INR Range 2.0-3.0 (number) ([3]; Visit 5, Week 4, N 51): 22 | Patients in INR Range 2.0-3.0 (percent) ([3]; Visit 5, Week 4, N 51): 43% | Patients in INR Range >3.0 (number) ([3]; Visit 5, Week 4, N 51): 12 | Patients in INR Range >3.0 (percent) ([3]; Visit 5, Week 4, N 51): 24% | Patients in INR Range 1.0-1.9 (number) ([3]; Visit 6, Week 8, N 49): 15 | Patients in INR Range 1.0-1.9 (percent) ([3]; Visit 6, Week 8, N 49): 31% | Patients in INR Range 2.0-3.0 (number) ([3]; Visit 6, Week 8, N 49): 25 | Patients in INR Range 2.0-3.0 (percent) ([3]; Visit 6, Week 8, N 49): 51% | Patients in INR Range >3.0 (number) ([3]; Visit 6, Week 8, N 49): 9 | Patients in INR Range >3.0 (percent) ([3]; Visit 6, Week 8, N 49): 18% | Patients in INR Range 1.0-1.9 (number) ([3]; Visit 7, Week 12, N 58): 18 | Patients in INR Range 1.0-1.9 (percent) ([3]; Visit 7, Week 12, N 58): 31% | Patients in INR Range 2.0-3.0 (number) ([3]; Visit 7, Week 12, N 58): 33 | Patients in INR Range 2.0-3.0 (percent) ([3]; Visit 7, Week 12, N 58): 57% | Patients in INR Range >3.0 (number) ([3]; Visit 7, Week 12, N 58): 7 | Patients in INR Range >3.0 (percent) ([3]; Visit 7, Week 12, N 58): 12% | TIAs [4, 6]: 2 | fatal strokes [4, 6]: 2 | major life-threatening bleeds [4, 6]: 3

CCOC(=O)CN[C@@H](C(=O)N1CC[C@H]1C(=O)NCc1ccc(/C(N)=N\O)cc1)C1CCCCC1 [X, EtO2C—CH2-(R)Cgl-Aze-Pab-OH]
Prematurely discont. (percent of patients) ([1]; X 20 mg p.o. b.i.d., 12 weeks): (15%) | Prematurely discont. (number of patients) ([1]; X 20 mg p.o. b.i.d., 12 weeks, 66 randomised): 10 | Prematurely discont. (percent of patients) ([1]; X 40 mg p.o. b.i.d., 12 weeks): (19%) | Prematurely discont. (number of patients) ([1]; X 40 mg p.o. b.i.d., 12 weeks, 64 randomised): 12 | onset pattern of bleeding ([1]; X 60 mg b.i.d., similar pattern to warfarin): occurs early in the treatment period | Prematurely discont. (percent of patients) ([1]; X 60 mg p.o. b.i.d., 12 weeks): (20%) | Prematurely discont. (number of patients) ([1]; X 60 mg p.o. b.i.d., 12 weeks, 60 randomised): 12 | Bleeding Events, category Major ([1]; X Dose 20 mg b.i.d., 12 weeks): 0 | Bleeding Events, category Minor ([1]; X Dose 20 mg b.i.d., 12 weeks): 1 | Bleeding Events, category Multiple Minor ([1]; X Dose 20 mg b.i.d., 12 weeks): 2 | Bleeding Events, category None (patients) ([1]; X Dose 20 mg b.i.d., 12 weeks): 61 | Bleeding Events, category Unspecified ([1]; X Dose 20 mg b.i.d., 12 weeks): 2 | Number of Patients discontinued, reason Adverse Event ([1]; X Dose 20 mg b.i.d., 12 weeks): 6 | Number of Patients discontinued, reason Calc. CrCl < 40 mL/min ([1]; X Dose 20 mg b.i.d., 12 weeks): 4 | Number of Patients discontinued, reason Other ([1]; X Dose 20 mg b.i.d., 12 weeks): 0 | Number of Patients, Total Discontinued ([1]; X Dose 20 mg b.i.d., 12 weeks): 10 | Bleeding Events, category Major ([1]; X Dose 40 mg b.i.d., 12 weeks): 0 | Bleeding Events, category Minor ([1]; X Dose 40 mg b.i.d., 12 weeks): 0 | Bleeding Events, category Multiple Minor ([1]; X Dose 40 mg b.i.d., 12 weeks): 3 | Bleeding Events, category None (patients) ([1]; X Dose 40 mg b.i.d., 12 weeks): 57 | Bleeding Events, category Unspecified ([1]; X Dose 40 mg b.i.d., 12 weeks): 2 | Bleeding Events, category Major ([1]; X Dose 60 mg b.i.d., 12 weeks): 0 | Bleeding Events, category Minor ([1]; X Dose 60 mg b.i.d., 12 weeks): 3 | Bleeding Events, category Multiple Minor ([1]; X Dose 60 mg b.i.d., 12 weeks): 0 | Bleeding Events, category None (patients) ([1]; X Dose 60 mg b.i.d., 12 weeks): 52 | Bleeding Events, category Unspecified ([1]; X Dose 60 mg b.i.d., 12 weeks): 4 | Number of Patients discontinued, reason Adverse Event ([1]; X Dose 60 mg b.i.d., 12 weeks): 5 | Number of Patients discontinued, reason Calc. CrCl < 40 mL/min ([1]; X Dose 60 mg b.i.d., 12 weeks): 4 | Number of Patients discontinued, reason Other ([1]; X Dose 60 mg b.i.d., 12 weeks): 1 | Number of Patients, Total Discontinued ([1]; X Dose 60 mg b.i.d., 12 weeks): 12 | Number of Patients discontinued, reason Adverse Event [1, 7]: 3 | Number of Patients discontinued, reason Calc. CrCl < 40 mL/min [1, 7]: 5 | Number of Patients discontinued, reason Other [1, 7]: 1 | Number of Patients, Total Discontinued [1, 7]: 12 | liver enzyme levels ([1]; a few patients treated with X): asymptomatic increases | tolerability ([1]; doses of up to 60 mg b.i.d. over 3 months): well tolerated | Stroke/TIA event of individual patient ([2]; X 60 mg b.i.d. group, 12 weeks, one line per patient (Pat. 121, 309)): Ischemic stroke and TIA | stroke rate ([2]; X group, all doses combined, estimated 40 patient years of observation): 2.5% | TIA reported [2, 8]: one | ischemic stroke reported [2, 8]: one | pharmacokinetics, dose dependence [5]: dose proportional | TIAs [4, 9]: 2 | major bleeds [4, 9]: no major bleeds | non-fatal strokes [4, 9]: 2
